# The supplement of paper PMC12137928
# Where a name gives a salt, the structure may show the parent alone.
# System: HCT116
# Settings: 72 h
# Method in brief: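 For IC50 and maximal efficacy, four-parameter Hill fits were used. Input values were CellTiter-Glo luminescence from HCT116 cells seeded at 250 per well in 1536-well plates, normalized to vehicle (0%) and positive control (-100%). Pattern correction followed normalization.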
Compound,IC50 cell viability (ICRF193 0 nM) [µM],IC50 cell viability (ICRF193 200 nM) [µM]
CC[C@H]1CN2CC[C@H]1C[C@@H]2[C@@H](O)c1ccnc2ccc(OC)cc12 [Hydroquinidine HCl],> 45.8,> 45.8
Oc1ccc(O)cc1 [Hydroquinone],> 45.8,> 45.8
CCN(CCO)CCCC(C)Nc1ccnc2cc(Cl)ccc12 (centres undefined) [Hydroxychloroquine sulfate],> 45.8,> 45.8
CC(CC=O)CCCC(C)(C)O (centres undefined) [Hydroxycitronellal],> 45.8,> 45.8
N=C(N)c1ccc(/C=C/c2ccc(C(=N)N)cc2O)cc1 [Hydroxystilbamidine bis(methanesulfonate)],> 45.8,> 45.8
NC(=O)NO [Hydroxyurea],> 45.8,> 45.8
OCCOCCN1CCN(C(c2ccccc2)c2ccc(Cl)cc2)CC1 (centres undefined) [Hydroxyzine],> 45.8,> 45.8
CNC1CC(N)C(O)C(OC2OC(CO)C(O)C3OC4(OC(C(N)CO)C(O)C(O)C4O)OC23)C1O (centres undefined) [Hygromycin B],> 45.8,> 45.8
N=C1NC(=O)N2CC12 (centres undefined) [IMEXON],> 45.8,> 45.8
O=C(O[C@H]1[C@H](OC(=O)c2cccnc2)[C@@H](OC(=O)c2cccnc2)[C@H](OC(=O)c2cccnc2)[C@@H](OC(=O)c2cccnc2)[C@H]1OC(=O)c1cccnc1)c1cccnc1 [INOSITOL NIACINATE],> 45.8,> 45.8
CC[C@H]1[C@@H](O)[C@@H]2[C@H](CC[C@]3(C)[C@@H]([C@H](C)CCC(=O)O)CC[C@@H]23)[C@@]2(C)CC[C@@H](O)C[C@@H]12 [INT-747 (Obeticholic acid)],> 45.8,> 45.8
CN(CC(O)CO)C(=O)c1c(I)c(NC(=O)C(CO)CO)c(I)c(C(=O)N(C)CC(O)CO)c1I (centres undefined) [IOBITRIDOL],> 45.8,> 45.8
CC(C)CCCC(C)NC(C)C (centres undefined) [IPROHEPTINE],> 45.8,> 45.8
CNCC(=O)OCc1cccnc1N(C)C(=O)OC(C)[n+]1cnn(C[C@](O)(c2cc(F)ccc2F)[C@@H](C)c2nc(-c3ccc(C#N)cc3)cs2)c1 (some centres undefined) [ISAVUCONAZONIUM SULFATE],> 45.8,> 45.8
CCC(NC(C)C)C(O)c1ccc(O)c(O)c1 (centres undefined) [ISOETHARINE MESYLATE],> 45.8,> 45.8
Cc1c(F)cc2c(=O)c(C(=O)O)cn3c2c1CCC3C (centres undefined) [Ibafloxacine],> 45.8,> 45.8
CCCCCN(C)CCC(O)(P(=O)(O)O)P(=O)(O)O [Ibandronate sodium hydrate],> 45.8,> 45.8
CC(C)C(=O)c1c(C(C)C)nn2ccccc12 [Ibudilast],> 45.8,> 45.8
CC(C)Cc1ccc(CC(=O)O)cc1 [Ibufenac],> 45.8,> 45.8
CC(C)Cc1ccc(C(C)C(=O)O)cc1 (centres undefined) [Ibuprofen lysine],> 45.8,> 45.8
CC(C)Cc1ccc(C(C)C(=O)OCc2ccccn2)cc1 (centres undefined) [Ibuprofen piconol],> 45.8,> 45.8

Compound,IC50 cell viability (ICRF193 0 nM) [µM],IC50 cell viability (ICRF193 200 nM) [µM]
CCCCCCCN(CC)CCCC(O)c1ccc(NS(C)(=O)=O)cc1 (centres undefined) [Ibutilide fumarate],> 45.8,> 45.8
N=C(N)NCCC[C@@H](N)C(=O)N[C@@H](CCCNC(=N)N)C(=O)N1CCC[C@H]1C(=O)N1C[C@H](O)C[C@H]1C(=O)NCC(=O)N[C@@H](Cc1cccs1)C(=O)N[C@@H](CO)C(=O)N1Cc2ccccc2C[C@@H]1C(=O)N1[C@H](C(=O)N[C@@H](CCCNC(=N)N)C(=O)O)C[C@@H]2CCCC[C@@H]21 [Icatibant],> 45.8,> 45.8
O=c1[nH]c(=O)n([C@H]2C[C@H](O)[C@@H](CO)O2)cc1I [Idoxuridine],> 45.8,> 45.8
CC(C(O)c1ccc(O)cc1)N1CCC(Cc2ccccc2)CC1 (centres undefined) [Ifenprodil],> 45.8,> 45.8
O=P1(NCCCl)OCCCN1CCCl (centres undefined) [Ifomide],> 45.8,> 45.8
CS(=O)(=O)Nc1cc2occ(NC=O)c(=O)c2cc1Oc1ccccc1 [Iguratimod],> 45.8,> 45.8
CC#CCC(C)[C@H](O)/C=C/[C@@H]1[C@H]2C/C(=C/CCCC(=O)O)C[C@H]2C[C@H]1O (some centres undefined) [Iloprost],> 45.8,> 45.8
Cc1ccc(NC(=O)c2ccc(CN3CCN(C)CC3)cc2)cc1Nc1nccc(-c2cccnc2)n1 [Imatinib],> 45.8,> 45.8
O=[N+]([O-])/N=C1\NCCN1Cc1ccc(Cl)nc1 [Imidacloprid],> 45.8,> 45.8
Cc1nccn1CCC(C(N)=O)(c1ccccc1)c1ccccc1 [Imidafenacin],> 45.8,> 45.8
CCOC(=O)[C@H](CCc1ccccc1)N[C@@H](C)C(=O)N1C(=O)N(C)C[C@H]1C(=O)O [Imidapril hydrochloride],> 45.8,> 45.8
O=C(NCNC(=O)NC1C(=O)NC(=O)N1CO)NC1C(=O)NC(=O)N1CO (centres undefined) [Imidazolidinyl urea],> 45.8,> 45.8
O=C(Nc1cccc(C2=NCCN2)c1)Nc1cccc(C2=NCCN2)c1 [Imidocarb dipropionate],> 45.8,> 45.8
C[C@@H](O)[C@H]1C(=O)N2C(C(=O)O)=C(SCCNC=N)C[C@H]12 [Imipenem],> 45.8,> 45.8
CC(C)Cn1cnc2c(N)nc3ccccc3c21 [Imiquimod],> 45.8,> 45.8
CS(=O)(=O)OCCCNCCCOS(C)(=O)=O [Improsulfan tosylate],> 45.8,> 45.8
CC1Cc2ccccc2N1NC(=O)c1ccc(Cl)c(S(N)(=O)=O)c1 (centres undefined) [Indapamide],> 45.8,> 45.8
CC(C)NCCCC1(C(N)=O)c2ccccc2-c2ccccc21 [Indecainide],> 45.8,> 45.8
O=C1/C(=C2\Nc3ccc(S(=O)(=O)O)cc3C2=O)Nc2ccc(S(=O)(=O)O)cc21 [Indigo carmine],> 45.8,> 45.8
O=C1/C(=C2\Nc3ccccc3C2=O)Nc2ccccc21 [Indigo],> 45.8,> 45.8
CC(C)(C)NC(=O)[C@@H]1CN(Cc2cccnc2)CCN1C[C@@H](O)C[C@@H](Cc1ccccc1)C(=O)N[C@H]1c2ccccc2C[C@H]1O [Indinavir sulfate],> 45.8,> 45.8

Compound,IC50 cell viability (ICRF193 0 nM) [µM],IC50 cell viability (ICRF193 200 nM) [µM]
c1ccc2[nH]ccc2c1 [Indole],> 45.8,> 45.8
COc1ccc2c(c1)c(CC(=O)OC/C=C(\C)CC/C=C(\C)CCC=C(C)C)c(C)n2C(=O)c1ccc(Cl)cc1 [Indomethacin farnesil],> 45.8,> 45.8
COc1ccc2c(c1)c(CC(=O)O)c(C)n2C(=O)c1ccc(Cl)cc1 [Indomethacin],> 45.8,> 45.8
O=C(NC1CCN(CCc2c[nH]c3ccccc23)CC1)c1ccccc1 [Indoramin hydrochloride],> 45.8,> 45.8
Nc1c(I)cc(I)c(C(=O)N(CCC(=O)O)c2ccccc2)c1I [Iobenzamic acid],> 45.8,> 45.8
CNC(=O)c1c(I)c(NC(=O)CCCCC(=O)Nc2c(I)c(C(=O)O)c(I)c(C(=O)NC)c2I)c(I)c(C(=O)O)c1I [Iocarmic acid],> 45.8,> 45.8
CC(=O)N(CC(C)C(=O)O)c1c(I)cc(I)c(N)c1I (centres undefined) [Iocetamic acid],> 45.8,> 45.8
CC(=O)NCc1c(I)c(NC(C)=O)c(I)c(C(=O)O)c1I [Iodamide],> 45.8,> 45.8
O=C(CCCCC(=O)Nc1c(I)cc(I)c(C(=O)O)c1I)Nc1c(I)cc(I)c(C(=O)O)c1I [Iodipamide],> 45.8,> 45.8
CC(=O)N(CC(O)CN(C(C)=O)c1c(I)c(C(=O)NCC(O)CO)c(I)c(C(=O)NCC(O)CO)c1I)c1c(I)c(C(=O)NCC(O)CO)c(I)c(C(=O)NCC(O)CO)c1I (centres undefined) [Iodixanol],> 45.8,> 45.8
Cc1c(I)c(=O)n(-c2ccccc2)n1C [Iodoantipyrine],> 45.8,> 45.8
O=C(CCOCCOCCOCCOCCC(=O)Nc1c(I)cc(I)c(C(=O)O)c1I)Nc1c(I)cc(I)c(C(=O)O)c1I [Iodoxamic Acid],> 45.8,> 45.8
CC(C)NC(C)Cc1ccc(I)cc1 (centres undefined) [Iofetamine hydrochloride],> 45.8,> 45.8
CC(=O)N(CC(O)CO)c1c(I)c(C(=O)NCC(O)CO)c(I)c(C(=O)NCC(O)CO)c1I (centres undefined) [Iohexol],> 45.8,> 45.8
CCOC(=O)c1ncn2c1CN(C)C(=O)c1c(I)cccc1-2 [Iomazenil],> 45.8,> 45.8
CN(C(=O)CO)c1c(I)c(C(=O)NCC(O)CO)c(I)c(C(=O)NCC(O)CO)c1I (centres undefined) [Iomeprol],> 45.8,> 45.8
C[C@H](O)C(=O)Nc1c(I)c(C(=O)NC(CO)CO)c(I)c(C(=O)NC(CO)CO)c1I [Iopamidol],> 45.8,> 45.8
CCC(Cc1c(I)cc(I)c(N)c1I)C(=O)O (centres undefined) [Iopanoic acid],> 45.8,> 45.8
COCC(=O)Nc1c(I)c(C(=O)NCC(O)CO)c(I)c(C(=O)N(C)CC(O)CO)c1I (centres undefined) [Iopromide],> 45.8,> 45.8
CNC(=O)c1c(I)c(NC(C)=O)c(I)c(C(=O)O)c1I [Iothalamate sodium],> 45.8,> 45.8
